Reference: US4153727A, “Pharmaceutical compositions of a prostaglandin compound for rectal use in treating asthma” (priority 1977, dated 1979)

What was measured:
histamine [1] = experiment: antiasthmatic effect, aerosol: protection against histamine-induced sneezing; format: in vivo; conditions: aerosol 15 sec; histamine aerosol 0.1%; guinea-pigs
Procedure: (§1) Guinea-pigs were placed in a chamber and sprayed for 10 sec. with an aerosol of histamine solution (0.1%) and onset of sneezing was recorded. Animals that sneezed within 70-100 sec. were selected as controls. These animals were sprayed for 15 sec. with an aerosol of the test compounds. After 45 sec., the animals were sprayed with histamine and observed for 3 min.

histamine [2] = experiment: antiasthmatic effect, oral: protection against histamine-induced sneezing; format: in vivo; conditions: Cavia porcellus, 0.5 h, 30 min before histamine spray, guinea-pigs
Procedure: as §1
Guinea-pigs were sprayed for 10 sec with histamine 30 min after oral administration of the test compounds and observed for 3 min. The percent of amimals protected was determined.

[3] = diarrhea-producing effect, oral; conditions: guinea pig, in vivo, guinea-pigs; for TD50: observed at 2-5 hrs and next morning, read-out: (A) Diarrhea-producing effect (b) ED50; for selectivity ratio: read-out: b/a (diarrhea-producing ED50 / oral antiasthmatic ED50)
Procedure: Ii. diarrhea-producing Effect
Test compounds were administered orally to guinea-pigs. The appearance of diarrhea (loose or watery feces) at every 2 hrs, 3 hrs, 4 hrs and 5 hrs period and next morning were noted.

histamine [4] = conditions: earlier patents; cited from earlier work
[5] = tested on: bronchoconstriction induced by intravenous injection of histamine; experiment: effect on air-way resistance (Konzett and Rossler), intraduodenal administration; format: in vivo, guinea-pig; conditions: Cavia porcellus, 0.5 h, 30 min before i.v. histamine 3 μg/kg, anesthetized guinea-pigs, read-out: (B) Effect on air-way resistance ED50
Procedure: Iii. effect on Air-way Resistance
The air-way resistance of the guinea-pig lung was determined by the method of Konzett and Rossler (Arch. exp. Path. Pharmak., 195, 71-74(1940)). The bronchodilator activity of prostaglandins were expressed in terms of protective effect against bronchoconstriction induced by intravenous injection of histamine (3 μg/kg). Histamine was injected 30 min after intraduodenal administration of test compound to urethane anesthetized and artificially ventilated guinea-pigs.

[6] = stability as inhalant (aerosol); format: physicochemical; conditions: used as an inhalant (aerosol)
hystamine = experiment: Experiment 1: bronchodilator activity by hystamine spray method, rectal vs oral; format: in vivo, male guinea pigs; conditions: 30 min; for Bronchodilator activity, effective / animals tested: oral (control)
Procedure: A suppository prepared using the compound of formula I and the oily base or water-soluble base was applied by rectal administration (this invention) to male guinea pigs fasted for 24 hours, each weighing about 550 g. On the other hand, a solution of the compound of formula I in physiological saline solution was applied by oral administration to guinea pigs under the same condition as above for control. After 30 minutes from the administration, the bronchodilator activity of the medicament was determined by a hystamine spray method.

histamine [7] = conditions: earlier patents; cited from earlier work; remark: listed apart in the source
[8] = tested on: respiratory tract contraction induced by hystamine; experiment: 50% inhibition of respiratory tract contraction induced by hystamine, oral vs intravenous; format: in vivo; conditions: 50% inhibition of hystamine-induced respiratory tract contraction
[9] = rectal administration: absorption, antitussive effect, diarrhea; format: in vivo

Row | SMILES | Antiasthmatic effect, Aerosol ED50 (histamine [1]) [µg/mL] | ED50 (histamine [2]) [mg/kg] | TD50 [3] [mg/kg] | selectivity ratio [3] | antiasthmatic effect by oral administration (in words) (histamine [4]) | also measured
1 | CCCC[C@@H](C)[C@H](O)/C=C/[C@H]1[C@H](O)CC(=O)[C@@H]1C/C=C\CCCC(=O)O [16(R)-methyl-PGE2, 11α,15(S)-dihydroxy-16(R)-methyl-9-oxo-5(cis)-13(trans)prostadienoic acid] | 0.011 | 0.0175 | 0.025 | 1.43 | – | –
2 | CCCC[C@H](C)[C@H](O)/C=C/[C@H]1[C@H](O)CC(=O)[C@@H]1C/C=C\CCCC(=O)O [16(S)-methyl-PGE2, 11α, 15(S)-dihydroxy-16(S)-methyl-9-oxo-5(cis)-13(trans)prostadienoic acid] | 0.009 | 0.025 | 0.1 | 4 | – | –
3 | COCCCCC[C@H](O)/C=C/[C@H]1[C@H](O)CC(=O)[C@@H]1C/C=C\CCCC(=O)O [20-methoxy-PGE2, 11α,15(S)-dihydroxy-20-methoxy-9-oxo-5(cis)-13(trans)Prostadienoic acid] | 0.15 | > 0.8 | – | – | does not show antiasthmatic effect | –
4 | CCCCC[C@H](O)/C=C/[C@H]1[C@H](O)CC(=O)[C@@H]1C/C=C\CCCC(=O)O [Prostaglandin E2] | 0.15 | > 0.8 | – | – | – | ED50 [5]: > 0.8 mg/kg
5 | COCCCC[C@H](C)[C@H](O)/C=C/[C@H]1[C@H](O)CC(=O)[C@@H]1C/C=C\CCCC(=O)O [compound of formula I, 11α,15(S)-dihydroxy-20-methoxy-16(S)-methyl-9-oxo-5(cis),13(trans)-prostadienoic acid] | – | 0.71 | 0.14 | 20 | excellent antiasthmatic effect | stability of the medicament [6]: difficult to maintain the stability; Bronchodilator activity, effective / animals tested (hystamine; 3.1 μg/kg): 1/6; Bronchodilator activity, effective / animals tested (hystamine; 6.3 μg/kg): 3/6; Bronchodilator activity, effective / animals tested (hystamine; 12.5 μg/kg): 4/6; Bronchodilator activity, effective / animals tested (hystamine; 25 μg/kg): 4/6; Bronchodilator activity, effective / animals tested (hystamine; 50 μg/kg): 5/6; Bronchodilator activity ED50 (hystamine; oral administration (control)): 0.007 mg/kg; antiasthmatic effect by aerosol administration (in words) (histamine [7]): excellent antiasthmatic effect; effective amount (ED50) oral relative to intravenous injection [8]: about 2400 times; absorption through the intestine [9]: unexpectedly absorbed through the intestine; antitussive effect [9]: exhibits an antitussive effect; diarrhea [9]: does not cause diarrhea
